# Source: patent US7964624B1, “Inhibitors of serine proteases” (priority 2005, dated 2011)
# pKi: −log10 of the molar value.
# Molecular target: T1, full-length hepatitis C viral protein NS3•4A (Hepatitis C virus genotype 1a, UniProt P27958)
# T1 construct: hexa-histidine (N); made in house; host or cells: Sf9 insect cells (baculovirus, pVL1392)
# Assay: biochemical
# Set-up: species or system HCV sub-type strain 1a
# Conditions: Enzyme Assay 2 (HCV NS3 Peptide Cleavage Assay) activity, apparent Ki class
row,SMILES,pKi
1,CCC[C@H](NC(=O)[C@@H]1C[C@]2(CC(c3cccc4cccnc34)=NO2)CN1C(=O)[C@@H](NC(=O)OC(C)(C)C)C(C)(C)C)C(=O)C(=O)NC1CC1 [Compound 619],> 7.00
2,CCC[C@H](NC(=O)[C@@H]1C[C@]2(CC(c3cc(Cl)c(OC)cc3C)=NO2)CN1C(=O)[C@@H](NC(=O)CC1CCCCC1)C(C)(C)C)C(=O)C(N)=O [Compound 620],> 7.00
3,CCC[C@H](NC(=O)[C@@H]1C[C@]2(CC(c3ccc(F)c(Cl)c3)=NO2)CN1C(=O)[C@@H](NC(=O)CC1CCCCC1)C(C)(C)C)C(=O)C(N)=O [Compound 621],> 7.00
4,CCC[C@H](NC(=O)[C@@H]1C[C@]2(CC(c3cc(Cl)c(OC)cc3C)=NO2)CN1C(=O)[C@@H](NC(=O)CC1CCCCCC1)C(C)(C)C)C(=O)C(N)=O [Compound 622],6.30 to 7.00
5,CCC[C@H](NC(=O)[C@@H]1C[C@]2(CC(c3ccc(F)c(Cl)c3)=NO2)CN1C(=O)[C@@H](NC(=O)CC1CCCCCC1)C(C)(C)C)C(=O)C(N)=O [Compound 623],> 7.00
6,CCC[C@H](NC(=O)[C@@H]1C[C@]2(CC(c3cc(Cl)c(OC)cc3C)=NO2)CN1C(=O)[C@@H](NC(=O)CC(C)(C)C)C(C)(C)C)C(=O)C(N)=O [Compound 624],6.30 to 7.00
7,CCC[C@H](NC(=O)[C@@H]1C[C@]2(CC(c3ccc(F)c(Cl)c3)=NO2)CN1C(=O)[C@@H](NC(=O)CC(C)(C)C)C(C)(C)C)C(=O)C(N)=O [Compound 625],> 7.00
8,CCC[C@H](NC(=O)[C@@H]1C[C@]2(CC(c3cc(Cl)c(OC)cc3C)=NO2)CN1C(=O)[C@@H](NC(=O)OC(C)(C)C)C(C)(C)C)C(=O)C(N)=O [Compound 626],> 7.00
9,CCC[C@H](NC(=O)[C@@H]1C[C@]2(CC(c3ccc(F)c(Cl)c3)=NO2)CN1C(=O)[C@@H](NC(=O)OC(C)(C)C)C(C)(C)C)C(=O)C(N)=O [Compound 627],> 7.00
10,CCC[C@H](NC(=O)[C@@H]1C[C@]2(CC(c3cc(Cl)c(OC)cc3C)=NO2)CN1C(=O)[C@@H](NC(=O)OC(C)(C)C)C(C)(C)C)C(=O)C(=O)NC1CC1 [Compound 628],6.30 to 7.00
11,CCC[C@H](NC(=O)[C@@H]1C[C@]2(CC(c3ccc(F)c(Cl)c3)=NO2)CN1C(=O)[C@@H](NC(=O)OC(C)(C)C)C(C)(C)C)C(=O)C(=O)NC1CC1 [Compound 629],> 7.00
12,CCC[C@H](NC(=O)[C@@H]1C[C@]2(CC(c3cc(Cl)c(OC)cc3C)=NO2)CN1C(=O)[C@@H](NC(=O)OC(C)(C)C)C(C)(C)C)C(=O)C(=O)NC [Compound 630],6.30 to 7.00
13,CCC[C@H](NC(=O)[C@@H]1C[C@]2(CC(c3ccc(F)c(Cl)c3)=NO2)CN1C(=O)[C@@H](NC(=O)OC(C)(C)C)C(C)(C)C)C(=O)C(=O)NC [Compound 631],> 7.00
14,CCC[C@H](NC(=O)[C@@H]1C[C@]2(CC(c3cc(Cl)ccc3OC)=NO2)CN1C(=O)[C@@H](NC(=O)CC1CCCCC1)C(C)(C)C)C(=O)C(=O)NC [Compound 632],> 7.00
15,COc1ccc(Cl)cc1C1=NO[C@]2(C1)C[C@@H](C(=O)N[C@@H](CC1CC1)C(=O)C(N)=O)N(C(=O)[C@@H](NC(=O)CC1CCCCC1)C(C)(C)C)C2 [Compound 633],> 7.00
16,CCC[C@H](NC(=O)[C@@H]1C[C@]2(CC(c3cc(Cl)ccc3OC)=NO2)CN1C(=O)[C@@H](NC(=O)CC1CCCCCC1)C(C)(C)C)C(=O)C(=O)NC [Compound 634],> 7.00
17,COc1ccc(Cl)cc1C1=NO[C@]2(C1)C[C@@H](C(=O)N[C@@H](CC1CC1)C(=O)C(N)=O)N(C(=O)[C@@H](NC(=O)CC1CCCCCC1)C(C)(C)C)C2 [Compound 635],> 7.00
18,CCC[C@H](NC(=O)[C@@H]1C[C@]2(CC(c3cc(Cl)ccc3OC)=NO2)CN1C(=O)[C@@H](NC(=O)CC1CCCCC1)C(C)(C)C)C(=O)C(N)=O [Compound 636],> 7.00
19,CCC[C@H](NC(=O)[C@@H]1C[C@]2(CC(c3cc(Cl)ccc3OC)=NO2)CN1C(=O)[C@@H](NC(=O)CC1CCCCCC1)C(C)(C)C)C(=O)C(N)=O [Compound 637],> 7.00
20,CCC[C@H](NC(=O)[C@@H]1C[C@]2(CC(c3cc(Cl)nc4ccccc34)=NO2)CN1C(=O)[C@@H](NC(=O)CC1CCCCC1)C(C)(C)C)C(=O)C(=O)NC1CC1 [Compound 638],> 7.00
21,CCC[C@H](NC(=O)[C@@H]1C[C@]2(CC(c3cc(Cl)nc4ccccc34)=NO2)CN1C(=O)[C@@H](NC(=O)OC1CCCC1)C(C)(C)C)C(=O)C(=O)NC1CC1 [Compound 639],> 7.00
22,CCC[C@H](NC(=O)[C@@H]1C[C@]2(CC(c3cc(C)c(OC)c(Cl)c3)=NO2)CN1C(=O)[C@@H](NC(=O)CC1CCCCC1)C(C)(C)C)C(=O)C(N)=O [Compound 640],> 7.00
23,CCC[C@H](NC(=O)[C@@H]1C[C@]2(CC(c3cc(C)c(OC)c(Cl)c3)=NO2)CN1C(=O)[C@@H](NC(=O)CC1CCCCC1)C(C)(C)C)C(=O)C(=O)NC [Compound 641],> 7.00
24,CNC(=O)C(=O)[C@H](CC1CC1)NC(=O)[C@@H]1C[C@]2(CC(c3cc(C)c(OC)c(Cl)c3)=NO2)CN1C(=O)[C@@H](NC(=O)CC1CCCCC1)C(C)(C)C [Compound 642],> 7.00

row,SMILES,pKi
1,CCC[C@H](NC(=O)[C@@H]1C[C@]2(CC(c3cc(Cl)cc(C)c3OC)=NO2)CN1C(=O)[C@@H](NC(=O)CC1CCCCC1)C(C)(C)C)C(=O)C(=O)NC1CC1 [Compound 643],> 7.00
2,CCC[C@H](NC(=O)[C@@H]1C[C@]2(CC(c3cccc4cccnc34)=NO2)CN1C(=O)[C@@H](NC(=O)OC(C)(C)C)C(C)(C)C)C(=O)C(=O)NC [Compound 644],6.30 to 7.00
3,CCC[C@H](NC(=O)[C@@H]1C[C@]2(CC(c3cc(C)c(OC)c(Cl)c3)=NO2)CN1C(=O)[C@@H](NC(=O)OC(C)(C)C)C(C)(C)C)C(=O)C(=O)NC1CC1 [Compound 645],> 7.00
4,CCC[C@H](NC(=O)[C@@H]1C[C@]2(CC(c3cc(C)c(OC)c(Cl)c3)=NO2)CN1C(=O)[C@@H](NC(=O)OC(C)(C)C)C(C)(C)C)C(=O)C(=O)NC [Compound 646],> 7.00
5,CCC[C@H](NC(=O)[C@@H]1C[C@]2(CC(c3cccc4cccnc34)=NO2)CN1C(=O)[C@@H](NC(=O)OC1CCCC1)C(C)(C)C)C(=O)C(=O)NC [Compound 647],6.30 to 7.00
6,CCC[C@H](NC(=O)[C@@H]1C[C@]2(CC(c3cccc4cccnc34)=NO2)CN1C(=O)[C@@H](NC(=O)OC1CCCC1)C(C)(C)C)C(=O)C(=O)NC1CC1 [Compound 648],6.30 to 7.00
7,CCC[C@H](NC(=O)[C@@H]1C[C@]2(CC(c3cc(Cl)ccc3OC)=NO2)CN1C(=O)[C@@H](NC(=O)CC1CCCCCC1)C(C)(C)C)C(=O)C(=O)NC1CC1 [Compound 649],6.30 to 7.00
8,CCC[C@H](NC(=O)[C@@H]1C[C@]2(CC(c3cc(Cl)c(OC)cc3C)=NO2)CN1C(=O)[C@@H](NC(=O)OC1CCCC1)C(C)(C)C)C(=O)C(=O)NC [Compound 650],6.30 to 7.00
9,CCC[C@H](NC(=O)[C@@H]1C[C@]2(CC(c3cc(Cl)c(OC)cc3C)=NO2)CN1C(=O)[C@@H](NC(=O)OC1CCCC1)C(C)(C)C)C(=O)C(N)=O [Compound 651],6.30 to 7.00
10,CCC[C@H](NC(=O)[C@@H]1C[C@]2(CC(c3ccc(F)c(Cl)c3)=NO2)CN1C(=O)[C@@H](NC(=O)OC1CCCC1)C(C)(C)C)C(=O)C(=O)NC1CC1 [Compound 652],> 7.00
11,CCC[C@H](NC(=O)[C@@H]1C[C@]2(CC(c3ccc(F)c(Cl)c3)=NO2)CN1C(=O)[C@@H](NC(=O)OC1CCCC1)C(C)(C)C)C(=O)C(=O)NC [Compound 653],6.30 to 7.00
12,CCC[C@H](NC(=O)[C@@H]1C[C@]2(CC(c3ccc(F)c(Cl)c3)=NO2)CN1C(=O)[C@@H](NC(=O)OC1CCCC1)C(C)(C)C)C(=O)C(N)=O [Compound 654],> 7.00
13,CCC[C@H](NC(=O)[C@@H]1C[C@]2(CC(c3cc(Cl)c(OC)cc3OC)=NO2)CN1C(=O)[C@@H](NC(=O)CC1CCCCCC1)C(C)(C)C)C(=O)C(=O)NC [Compound 655],6.30 to 7.00
14,CCC[C@H](NC(=O)[C@@H]1C[C@]2(CC(c3cc(Cl)c(OC)cc3OC)=NO2)CN1C(=O)[C@@H](NC(=O)CC1CCCCCC1)C(C)(C)C)C(=O)C(N)=O [Compound 656],6.30 to 7.00
15,CNC(=O)C(=O)[C@H](CC1CC1)NC(=O)[C@@H]1C[C@]2(CC(c3cc(Cl)c(OC)cc3OC)=NO2)CN1C(=O)[C@@H](NC(=O)CC1CCCCC1)C(C)(C)C [Compound 657],> 7.00
16,COc1c(C)cc(C2=NO[C@]3(C2)CC(C(=O)N[C@H](CC2CC2)C(=O)C(N)=O)N(C(=O)[C@@H](NC(=O)CC2CCCCC2)C(C)(C)C)C3)cc1Cl (stereo partly drawn) [Compound 658],6.30 to 7.00
17,CCC[C@H](NC(=O)[C@@H]1C[C@]2(CC(c3nccc4ccccc34)=NO2)CN1C(=O)[C@@H](NC(=O)OC1CCCC1)C(C)(C)C)C(=O)C(=O)NC1CC1 [Compound 661],> 7.00
18,CNC(=O)C(=O)[C@H](CC1CC1)NC(=O)[C@@H]1C[C@]2(CC(c3cc(Cl)c(OC)cc3C)=NO2)CN1C(=O)[C@@H](NC(=O)CC1CCCCC1)C(C)(C)C [Compound 662],6.30 to 7.00
19,CCC[C@H](NC(=O)[C@@H]1C[C@]2(CC(c3cc(Cl)c(OC)cc3C)=NO2)CN1C(=O)[C@@H](NC(=O)OC1CCCC1)C(C)(C)C)C(=O)C(=O)NC1CC1 [Compound 666],> 7.00
20,CCC[C@H](NC(=O)[C@@H]1C[C@]2(CC(c3cc(Cl)ccn3)=NO2)CN1C(=O)[C@@H](NC(=O)OC1CCCC1)C(C)(C)C)C(=O)C(=O)NC1CC1 [Compound 667],> 7.00
21,CNC(=O)C(=O)[C@H](CC1CC1)NC(=O)[C@@H]1C[C@]2(CC(c3cccc4cccnc34)=NO2)CN1C(=O)[C@@H](NC(=O)CC1CCCCC1)C(C)(C)C [Compound 671],6.30 to 7.00
22,CCC[C@H](NC(=O)[C@@H]1C[C@]2(CC(c3cc(Cl)c4c(c3)OCCO4)=NO2)CN1C(=O)[C@@H](NC(=O)CC1CCCCC1)C(C)(C)C)C(=O)C(=O)NC [Compound 674],> 7.00
23,CNC(=O)C(=O)[C@H](CC1CC1)NC(=O)[C@@H]1C[C@]2(CC(c3cc(Cl)c4c(c3)OCCO4)=NO2)CN1C(=O)[C@@H](NC(=O)CC1CCCCC1)C(C)(C)C [Compound 675],> 7.00
24,CCC[C@H](NC(=O)[C@@H]1C[C@]2(CC(c3cc(Cl)cc4c3OCOC4)=NO2)CN1C(=O)[C@@H](NC(=O)CC1CCCCC1)C(C)(C)C)C(=O)C(=O)NC1CC1 [Compound 676],> 7.00
